Data reported in US8119689B2, “Adjuvants on the basis of bisacyloxypropylcystene conjugates and derivatives and their uses in pharmaceutical compositions” (Helmholtz-Zentrum Fuer Infektionsforschung GmbH, priority 2005, dated 2012).
Entries after “also recorded” stand apart in the source; their conditions may differ.

Tests used:
spleen cells [1] = test: In vitro T cell-mediated proliferative response of spleen cells restimulated with the adjuvant ([3H]thymidine); type: cell-based, Balb/c mice; details: negative control 4armPEG or Ada
Experimental: FIG. 2: FIG. 2 illustrates the cellular responses of restimulated spleen cells using different concentrations of BPPcysGlyc4armPEG or BPPcysAda as adjuvant. […] Results are expressed as counts per minute (A) and (C) and stimulation indexes (cpm samples/cpm in control non stimulated cells) (B).
Experimental protocol: Spleens were removed and pooled for analysis of cellular immune responses. Cells were grown in RPMI 1640 supplemented with 10% fetal calf serum, 100 U/ml of penicillin, 50 μg/ml of streptomycin, 5×10^−5 M 2-mercaptoethanol and 1 mM L-glutamine (GIBCO BRL, Karlsruhe, Germany) and maintained at 37° C. in a humidified 5% CO2 atmosphere. Lymph node and spleen cell suspensions were adjusted to 5×10^6 cells/ml in complete medium, cells were seeded with 100 μl per well in a flat-bottomed 96-well microtiter plate (Nunc) and plates were incubated for 4 days in the presence of different concentrations of soluble β-gal. Each concentration was tested in quadruplicates. […] Cells were then harvested on paper filters (Filtermat A; Wallac, Freiburg, Germany) by using a cell harvester (Inotech, Wohlen, Switzerland), and the amount of incorporated [^3H]thymidine into the DNA of proliferating cells was determined by a […] (Wallac 1450, Micro-Trilux). The results are expressed as the arithmetic mean of [^3H]thymidine uptake in cpm. […]

β-gal-specific IgA = test: β-gal-specific secretory IgA in lung and vaginal lavages of i.n. immunized mice; type: in vivo, BALB/c mice; details: i.n. immunization
Experimental: Differences were statistically significant at p<0.05 (*) with respect to mice receiving antigen alone. One representative out of four independent experiments is shown. SEM is indicated by vertical lines.
At day 38, mice were sacrificed and the final sampling was performed. Vaginal and lung ravages were obtained by flushing the organs with 1 ml of PBS supplemented with 50 mM EDTA, 0.1% BSA, and 10 mM PMSF. Lavages were then centrifuged to remove debris (10 min at 3000×g), and supernatant fluids were stored at −20° C. To determine the concentration of total IgA present in the lung and vaginal ravages, serial dilutions of the corresponding samples were incubated in microtiter plates that were previously coated with goat anti-mouse IgA (Sigma Chemie), as capture antibodies (100 μl/well). Serial dilutions of purified mouse IgA (Sigma Chemie) were used to generate a standard curve.

spleen cells [2] = test: Cytokines secreted by in vitro re-stimulated spleen cells of immunized mice (cytometric bead array); type: in vivo
Experimental: Cytokines secreted by in vitro re-stimulated spleen cells were determined in immunized mice by CBA. Results are expressed as cytokine concentration ratios (IL-10 the most prominent detected cytokine) (B) and (D) and the stimulation index (A) and (C).
Cytometric Bead Array: Culture supernatants from proliferating cells were collected on days 2 and 4, and stored at −70° C. Determinations of IFN-γ, TNFα, IL-2, IL-4, IL-5, IL-6, IL-10 and IL-12 were performed by cytometric bead array analysis using the commercial kit from BD, according to the manufacturer's instructions. A standard curve was generated for each cytokine by using the corresponding recombinant murine cytokines (Pharmingen). Probes were incubated at room temperature for additional 2 h. The probes were then analyzed by flow cytometry as described by the protocol of BD.
To characterize the type of Th response stimulated following immunization, the content of IFN-γ, IL-2, IL-4, IL-5, IL-6, IL-10, IL-12 and TNFα was measured in supernatants from in vitro re-stimulated spleen cells (FIG. 7). […] In fact, the strong stimulation of IL-10 secretion is congruent with the role played by this cytokine in the inhibition of cytokine synthesis by Th1 cells, the enhancement of B cells proliferation and the stimulation of IgA production.

spleen cells [3] = test: ELISPOT of cytokine producing spleen cells from vaccinated mice; type: in vivo
Experimental: FIG. 9: FIG. 9 provides the cytokine profile (IFNγ, IL-4 and IL-2) secreted by in vitro re-stimulated spleen cells from mice vaccinated with either BPPcysGlyc4armPEG or BPPcysMPEG (A), or BPPcysAda (B) and the model antigen β-gal (30 μg) alone. Results are expressed as spot forming units with subtracted background in the immunized groups with respect to the non-immunized control mice. Differences were statistically significant at p<0.05 (*) with respect to mice receiving antigen alone.
Experimental protocol: Spleens were removed and pooled for analysis of cellular immune responses. Cells were grown in RPMI 1640 supplemented with 10% fetal calf serum, 100 U/ml of penicillin, 50 μg/ml of streptomycin, 5×10^−5 M 2-mercaptoethanol and 1 mM L-glutamine (GIBCO BRL, Karlsruhe, Germany) and maintained at 37° C. in a humidified 5% CO2 atmosphere. […] Coat ELISPOT plate with 100 μl/well of purified capture antibody at 10 μg/ml in coating buffer, incubate at 4° C. overnight. After 6× washing steps, the plates were blocked with 200 μl/well of complete RPMI-1640 at room temperature for 1 hour. The activated cells were seeded at 100 μl per well and incubate at 37° C., in a 5% CO2 humidified incubator for 24 hours or 48 hours. After 5× washing steps with washing buffer and 1× step with distilled water, 100 μl/well of the biotinylated detection antibody with a concentration of 1 μg/ml in Assay Diluent was added and incubated at room temperature for 2 hrs. After further washing steps 100 μl/well of the AV-HRP at 1/1000 dilution in Assay Diluent was added and incubated at room temperature for 30 minutes. After further washing steps 100 μl/well of AEC Substrate Solution was added and developed at room temperature for 20-60 minutes until visible spots appeared. After washing steps with (3×) with 200 μl/well distilled water, the plates were air-dried and analyzed by counting the spots by an ELISPOT reader. Each concentration was tested in triplicates.

CD8+ T cells = test: IFNγ-producing CD8+ T cells after stimulating splenocytes with MHC cl. I restricted β-Gal or OVA peptides; type: in vivo; details: vs β-Gal or OVA alone-treated groups; intranasal, subcutaneous or intramuscular route (not shown)
Experimental: To assess the epitope-specific cellular immune response induced by the co-administration of BPPCysAda via intranasal, subcutaneous or intramuscular route, IFNγ-producing CD8+ T cells were analyzed after stimulating splenocytes with the MHC cl. I restricted β-Gal (TPHPARIGL) or OVA ([…]) peptides.

[4] = supernatants of in vitro re-stimulated spleen cells

## CCCCCCCCCCCCCCCC(=O)OCC(CSC[C@H](N)C(=O)N[C@H]1[C@@H](O)[C@H](n2cnc3c(N)ncnc32)O[C@@H]1CO)OC(=O)CCCCCCCCCCCCCCC (single isomer, unassigned) [BPPcysAda, S-[2,3-bis(palmitoyloxy)-(2S or 2R)-propyl]-L-cysteinylcarboxy-3′Amino-3′-deoxyadenosine]
Spleen cells [1]
  proliferative response of restimulated spleen cells (stimulation index): efficient proliferative response
β-gal-specific IgA; day 38
  β-gal-specific IgA in vaginal lavages: significantly higher levels
β-gal-specific IgA; day 38, vs antigen alone
  β-gal-specific IgA in lung lavages (BAL): significantly higher levels
Spleen cells [2]; all BPPcysAda co-administered groups, intranasal
  IL-4 levels: induced
Spleen cells [2]; mucosal and parenteral co-administration
  type of immune response induced: Th2 dominated immune response
Spleen cells [2]; [4]
  IFNγ secretion: weaker increase; also recorded: minor secretion
  IL-2 secretion: induced; also recorded: weaker increase; also recorded: minor secretion
  IL-6 secretion: weaker increase
  IL-10 levels: significantly increased
  TNFα secretion: weaker increase
Spleen cells [3]; i.n. and s.c. route
  splenic IL-2 producing cells: enhanced expression
  splenic IL-4 producing cells: enhanced expression
Spleen cells [3]; restimulation with MHC class I-restricted β-Galactosidase peptide
  number of splenic IFNγ producing cells: increment
CD8+ T cells
  number of IFNγ-secreting CD8+ T cells: significantly decreased
